In patent US5834453A, “Methods for the manufacture and use of antimicrobial sterol conjugates” (Lehigh University, priority 1997, dated 1998):
Values after ≈ are worked out from the molar mass of the structure shown. “Also recorded” adds a separate entry of the source.

Columns and labels:
P. vulgaris (13315) = test: MIC, micro-broth dilution; format: cell-based; conditions: Proteus vulgaris, 35° C., 24 hours, read-out: ANTIMICROBIAL ACTIVITY (MIC)
Description: (§1) The antimicrobial activity of the compounds according to the present invention were compared with the results obtained for squalamine as reported in Proc. Nat. Acad. Sci. USA 90:1354 (1993), supra, the disclosure of which is incorporated in toto herein. The data reported in the following table is the minimum inhibitory concentration (MIC) required for complete inhibition of microbial growth. The MIC was determined utilizing known micro-broth dilution methods in which inocula of 10^6 /ml of the test organism were incubated in 0.5× trypticase soy broth at 35° C. for 24 hours. MIC's were also tested under various pH conditions, with calcium chloride or magnesium chloride, or with immobilized horse serum.
(§2) The numbers in parentheses contained in the table correspond to accession numbers with the American Type Culture Collection (reference strains were either obtained from the American Type Culture Collection or from the Microbiology Laboratory at Memorial Sloan-Kettering Cancer Center; Bacterial strains were maintained on Columbia 5% sheep blood agar plates, and fungi were maintained on Sabouraud Dextrose agar plates).

A. fumigatus (H29709) = test: MIC, micro-broth dilution; format: cell-based; conditions: Aspergillus fumigatus, 35° C., 24 hours, read-out: ANTIMICROBIAL ACTIVITY (MIC)
Description: as §1, §2

S. pneumoniae (6305) = test: MIC, micro-broth dilution; format: cell-based; conditions: Streptococcus pneumoniae, 35° C., 24 hours, read-out: ANTIMICROBIAL ACTIVITY (MIC)
Description: as §1, §2

C. neoformans (M68979) = test: MIC, micro-broth dilution; format: cell-based; conditions: Cryptococcus neoformans, 24 h, read-out: ANTIMICROBIAL ACTIVITY (MIC)
Description: as §1, §2

C. albicans (90028) = test: MIC, micro-broth dilution; format: cell-based; conditions: Candida albicans, 35° C., 24 hours, read-out: ANTIMICROBIAL ACTIVITY (MIC)
Description: as §1, §2

P. aeruginosa (10145) = test: MIC, micro-broth dilution; format: cell-based; conditions: Pseudomonas aeruginosa, 35° C., 24 hours, read-out: ANTIMICROBIAL ACTIVITY (MIC)
Description: as §1, §2

E. faecium (T6480-9) = test: MIC, micro-broth dilution; format: cell-based; conditions: Enterococcus faecium, 35° C., 24 hours, read-out: ANTIMICROBIAL ACTIVITY (MIC)
Description: as §1, §2

S. agalactiae (13813) = test: MIC, micro-broth dilution; format: cell-based; conditions: Streptococcus agalactiae, 35° C., 24 hours, read-out: ANTIMICROBIAL ACTIVITY (MIC)
Description: as §1, §2

S. marcescens (13880) = test: MIC, micro-broth dilution; format: cell-based; conditions: for MIC: Serratia marcescens, 24 h, read-out: ANTIMICROBIAL ACTIVITY (MIC)
Description: as §1, §2

E. faecalis (29212) = test: MIC, micro-broth dilution; format: cell-based; conditions: Enterococcus faecalis, 35° C., 24 hours, read-out: ANTIMICROBIAL ACTIVITY (MIC)
Description: as §1, §2

E. cloacae (13047) = test: MIC, micro-broth dilution; format: cell-based; conditions: Enterobacter cloacae, 35° C., 24 hours, read-out: ANTIMICROBIAL ACTIVITY (MIC)
Description: as §1, §2

S. aureus (25923) = test: MIC, micro-broth dilution; format: cell-based; conditions: Staphylococcus aureus, 35° C., 24 hours, read-out: ANTIMICROBIAL ACTIVITY (MIC)
Description: as §1, §2

P. aeruginosa (2853) = test: MIC, micro-broth dilution; format: cell-based; conditions: Pseudomonas aeruginosa, 24 h, read-out: ANTIMICROBIAL ACTIVITY (MIC)
Description: as §1, §2

S. pyrogenes (19615) = test: MIC, micro-broth dilution; format: cell-based; conditions: 24 h, read-out: ANTIMICROBIAL ACTIVITY (MIC)
Description: as §1, §2

S. aureus (H20809) = test: MIC, micro-broth dilution; format: cell-based; conditions: Staphylococcus aureus, 24 h, read-out: ANTIMICROBIAL ACTIVITY (MIC)
Description: as §1, §2

S. aureus (29213) = test: MIC, micro-broth dilution; format: cell-based; conditions: Staphylococcus aureus, 24 h, read-out: ANTIMICROBIAL ACTIVITY (MIC)
Description: as §1, §2

C. neoformans (90012) = test: MIC, micro-broth dilution; format: cell-based; conditions: Cryptococcus neoformans, 24 h, read-out: ANTIMICROBIAL ACTIVITY (MIC)
Description: as §1, §2

E. coli (25922) = test: MIC, micro-broth dilution; format: cell-based; conditions: Escherichia coli, 35° C., 24 hours, read-out: ANTIMICROBIAL ACTIVITY (MIC)
Description: as §1, §2

A. fumigatus (H1120) = test: MIC, micro-broth dilution; format: cell-based; conditions: Aspergillus fumigatus, 35° C., 24 hours, read-out: ANTIMICROBIAL ACTIVITY (MIC)
Description: as §1, §2

S. epidermidis (12228) = test: MIC, micro-broth dilution; format: cell-based; conditions: Staphylococcus epidermidis, 35° C., 24 hours, read-out: ANTIMICROBIAL ACTIVITY (MIC)
Description: as §1, §2

K. pneumoniae (13883) = test: MIC, micro-broth dilution; format: cell-based; conditions: Klebsiella pneumoniae, 24 h, read-out: ANTIMICROBIAL ACTIVITY (MIC)
Description: as §1, §2

[1] = Hemolytic activity, minimal hemolytic concentration (MHC); format: cell-based, sheep; conditions: sheep, red blood cells;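 further: MCC here is the minimal hemolytic concentration (MHC)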
Description: Hemolytic activity of the squalamine mimics according to the present invention were also studied by incubating sheep red blood cells for 24 hours at 37° C. in saline (final concentration of 0.5%) with or without respective concentrations of the squalamine mimics. The minimal hemolytic concentration (MHC) was determined as the lowest concentration of a mimic that raised visible hemolysis.

Row | SMILES | MIC (P. vulgaris (13315)) [µg/mL] | MIC (A. fumigatus (H29709)) [µg/mL] | MIC (S. pneumoniae (6305)) [µg/mL] | MIC (C. neoformans (M68979)) [µg/mL] | MIC (C. albicans (90028)) [µg/mL] | MIC (P. aeruginosa (10145)) [µg/mL] | MIC (E. faecium (T6480-9)) [µg/mL] | MIC (S. agalactiae (13813)) [µg/mL] | MIC (S. marcescens (13880)) [µg/mL] | MIC (E. faecalis (29212)) [µg/mL] | MIC (E. cloacae (13047)) [µg/mL] | MIC (S. aureus (25923)) [µg/mL] | MIC (P. aeruginosa (2853)) [µg/mL] | MIC (S. pyrogenes (19615)) [µg/mL] | MIC (S. aureus (H20809)) [µg/mL] | MIC (S. aureus (29213)) [µg/mL] | MIC (C. neoformans (90012)) [µg/mL] | MIC (E. coli (25922)) [µg/mL] | MIC (A. fumigatus (H1120)) [µg/mL] | MIC (S. epidermidis (12228)) [µg/mL] | further results
1 | C[C@H](CCC(=O)NCCCCN)[C@H]1CC[C@H]2[C@@H]3CC[C@@H]4C[C@H](O)CC[C@]4(C)[C@H]3C[C@H](O)[C@]12C [SM-9] | 50 (≈ 108 µM) | 50 (≈ 108 µM) | 25 (≈ 54 µM) | 25 (≈ 54 µM) | 25 (≈ 54 µM) | 100 (≈ 216 µM) | 50 (≈ 108 µM) | 12.5 (≈ 27 µM) | > 100 | 25 (≈ 54 µM) | 50 (≈ 108 µM) | 25 (≈ 54 µM) | 100 (≈ 216 µM) | 6.25 (≈ 13.5 µM) | 25 (≈ 54 µM) | 25 (≈ 54 µM) | 25 (≈ 54 µM) | 50 (≈ 108 µM) | 50 (≈ 108 µM) | 25 (≈ 54 µM) | MIC (K. pneumoniae (13883)): 50 µg/mL (≈ 108 µM); MCC at 24 h [1]: 50 µg/mL
2 | C[C@H](CCC(=O)NCCNCCNCCN)[C@H]1CC[C@H]2[C@@H]3CC[C@@H]4C[C@H](O)CC[C@]4(C)[C@H]3C[C@H](O)[C@]12C [SM-11] | 25 (≈ 48 µM) | 12.5 (≈ 24 µM) | 12.5 (≈ 24 µM) | 6.25 (≈ 12 µM) | 12.5 (≈ 24 µM) | 6.25 (≈ 12 µM) | 12.5 (≈ 24 µM) | 6.25 (≈ 12 µM) | 50 (≈ 96 µM) | 12.5 (≈ 24 µM) | 12.5 (≈ 24 µM) | 6.25 (≈ 12 µM) | 6.25 (≈ 12 µM) | 6.25 (≈ 12 µM) | 12.5 (≈ 24 µM) | 12.5 (≈ 24 µM) | 6.25 (≈ 12 µM) | 12.5 (≈ 24 µM) | 12.5 (≈ 24 µM) | 6.25 (≈ 12 µM) | activity against S. marcescens (S. marcescens (13880); in words): found even against S. marcescens; also recorded: effective against S. marcescens; MIC (K. pneumoniae (13883)): 12.5 µg/mL (≈ 24 µM); MCC at 24 h [1]: 25 µg/mL
3 | C[C@H](CCC(=O)NCCNCCNCCN)[C@H]1CC[C@H]2[C@@H]3[C@H](O)C[C@@H]4C[C@H](O)CC[C@]4(C)[C@H]3C[C@H](O)[C@]12C [SM-17] | 50 (≈ 93.1 µM) | 25 (≈ 46.6 µM) | 25 (≈ 46.6 µM) | 12.5 (≈ 23.3 µM) | 25 (≈ 46.6 µM) | 100 (≈ 186 µM) | 50 (≈ 93.1 µM) | 12.5 (≈ 23.3 µM) | > 100 | 50 (≈ 93.1 µM) | 50 (≈ 93.1 µM) | 25 (≈ 46.6 µM) | 50 (≈ 93.1 µM) | 12.5 (≈ 23.3 µM) | 50 (≈ 93.1 µM) | 25 (≈ 46.6 µM) | 12.5 (≈ 23.3 µM) | 50 (≈ 93.1 µM) | 25 (≈ 46.6 µM) | 25 (≈ 46.6 µM) | MIC (K. pneumoniae (13883)): 50 µg/mL (≈ 93.1 µM); MCC at 24 h [1]: > 100 µg/mL
4 | C[C@H](CCC(=O)NCCNCCNCCN)[C@H]1CC[C@H]2[C@@H]3CC[C@@H]4CCCC[C@]4(C)[C@H]3CC[C@]12C [SM-21] | 50 (≈ 102 µM) | 3.13 (≈ 6.4 µM) | 1.56 (≈ 3.19 µM) | 1.56 (≈ 3.19 µM) | 6.25 (≈ 12.8 µM) | 25 (≈ 51.1 µM) | 1.56 (≈ 3.19 µM) | 1.56 (≈ 3.19 µM) | > 100 | 3.13 (≈ 6.4 µM) | > 100 | 3.13 (≈ 6.4 µM) | 25 (≈ 51.1 µM) | 3.13 (≈ 6.4 µM) | 3.13 (≈ 6.4 µM) | 3.13 (≈ 6.4 µM) | 1.56 (≈ 3.19 µM) | 50 (≈ 102 µM) | 6.25 (≈ 12.8 µM) | 1.56 (≈ 3.19 µM) | MIC (K. pneumoniae (13883)): > 100 µg/mL; MCC at 24 h [1]: 3.13 µg/mL
5 | C[C@H](CCC(=O)NCCCNCCCCNCCCN)[C@H]1CC[C@H]2[C@@H]3CC[C@@H]4C[C@H](OS(=O)(=O)O)CC[C@]4(C)[C@H]3CC[C@]12C [SM-22] | > 100 | > 100 | 25 (≈ 39 µM) | 25 (≈ 39 µM) | > 100 | > 100 | > 100 | > 100 | > 100 | > 100 | > 100 | 1.56 (≈ 2.43 µM) | > 100 | 1.56 (≈ 2.43 µM) | 3.13 (≈ 4.88 µM) | 1.56 (≈ 2.43 µM) | 25 (≈ 39 µM) | > 100 | > 100 | 1.56 (≈ 2.43 µM) | MIC (K. pneumoniae (13883)): > 100 µg/mL; MCC at 24 h [1]: > 100 µg/mL
